Experimental data as given in patent US9238011B2, “Compositions, methods and kits for therapeutic treatment with wet spun microstructures” (Brown University, priority 2012, dated 2016).
Converted amounts (≈) assume the structure as drawn.

Assay: Solubility of DXM in the 6:1 (v/v) DCM to THF spin dope co-solvent
Type: physicochemical
Details: 6:1 (v/v) DCM to THF co-solvent (spin dope), organic solvent or mixture; 6:1 (v/v) DCM to THF with PLLA; read-out: maximum solubility in co-solvent solution
Protocol: PLLA (7.5% w/v), DXM-loaded (1.0%, 2.4%, 4.8% w/w) and unloaded (0% w/w) microfibers were wet spun by phase inversion. PLLA (526.9±0.3 mg) was dissolved in a co-solvent ratio of 6:1 (v/v) DCM to THF. […] The addition of THF was necessary to increase DXM solubility within the spin dope. The polymer/drug solution was loaded into a 5 mL syringe fitted with a 22-gauge spinneret and placed in a syringe pump with a solution flow rate of 0.06 mL/min. […] A rotating mandrel placed above the spin bath was used to collect microfibers for further analysis. Each formulation in Examples herein was characterized from multiple regions of meter-long microfiber bundles spun at the same time from one spin dope solution.

C[C@@H]1C[C@H]2[C@@H]3CCC4=CC(=O)C=C[C@]4(C)[C@@]3(F)[C@@H](O)C[C@]2(C)[C@@]1(O)C(=O)CO [DXM, Dexamethasone]
solubility: ~3600 µg/mL (≈ 9.17 mM)
